Measured values taken from patent publication US8153808B2, “Dihydropyridone amides as P2X7 modulators” (Roche Palo Alto LLC, priority 2008, dated 2012).

Molecular target: T1, P2X7 (UniProt Q99572)
T1 sequence (Q99572 1-595): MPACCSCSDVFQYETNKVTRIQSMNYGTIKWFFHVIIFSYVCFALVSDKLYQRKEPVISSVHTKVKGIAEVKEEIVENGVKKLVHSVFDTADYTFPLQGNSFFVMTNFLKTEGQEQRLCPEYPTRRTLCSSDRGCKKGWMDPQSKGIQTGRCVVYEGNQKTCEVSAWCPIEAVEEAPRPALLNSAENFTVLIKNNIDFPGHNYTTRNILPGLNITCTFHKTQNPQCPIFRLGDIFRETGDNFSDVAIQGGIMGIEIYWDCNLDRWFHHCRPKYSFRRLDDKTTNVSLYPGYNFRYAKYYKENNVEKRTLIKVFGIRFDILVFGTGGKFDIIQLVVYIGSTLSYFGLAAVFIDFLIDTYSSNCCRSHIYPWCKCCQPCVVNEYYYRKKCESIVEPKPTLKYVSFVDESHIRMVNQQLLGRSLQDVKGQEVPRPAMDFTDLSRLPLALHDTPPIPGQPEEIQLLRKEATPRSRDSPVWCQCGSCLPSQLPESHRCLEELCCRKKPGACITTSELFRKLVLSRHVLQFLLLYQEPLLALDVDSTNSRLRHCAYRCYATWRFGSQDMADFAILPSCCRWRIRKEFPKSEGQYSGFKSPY
Assay: pIC50 values for P2X7 (Table 1)
Format: cell-based
Method: Intracellular Calcium Flux (FLIPR) Assay
Stock solutions of compounds were prepared from powders as a 10 mM DMSO stock solution. These solutions were stored at RT during the two week period of these experiments to prevent freeze-thaw of the DMSO stocks. The DMSO stocks were added to the appropriate assay buffer at a concentration of 10 μM, and then diluted serially to the final concentrations that were tested. […] The aqueous solutions of compounds as well as ATP (Sigma A7699) and BzATP (Sigma B6396) were prepared fresh for each day of experiment.
1321N1 cells stably expressing the full length human P2X7 gene (1321N1-hP2X7) and HEK293 cells stably expressing the full length rat P2X7 gene (HEK293-rP2X7) were obtained from the Roche Cell Culture Facility. 1321N1-hP2X7 cells were grown in Dulbecco's Modified Eagle's Medium (DMEM) high glucose supplemented with 10% FBS and 250 μg/mL G418. HEK293-rP2X7 cells were grown in DMEM/F-12 supplemented with 10% FBS, 1 mM CaCl2, 2 mM MgCl2, 2 mM L-Glutamine and 500 μg/ml G418. Cells were split such that they never became >70% confluent.
On the day prior to the experiment, 1321N1-hP2X7 or HEK293-rP2X7 cells were released into suspension with calcium-free PBS+Versene and washed by centrifugation with calcium-free PBS to remove the Versene. Cells were resuspended in growth medium at a density of 2.5×10^5 cells/mL and seeded into black walled, clear bottom 96 well plates (50,000 cells/well) approximately 18 hr prior to intracellular calcium flux experiments.
On the day of the experiment, plates were washed with FLIPR buffer (calcium- and magnesium-free Hank's Balanced Salt Solution (HBSS) supplemented with 10 mM Hepes, 2.5 mM probenecid and 2 mM calcium chloride) using a BIO-TEK 96 channel plate washer and incubated with […] fluo-3 dye at 37° C. for one hr. The dye was then removed by plate washing and the cells were allowed to equilibrate for 20 min at room temperature with antagonist or vehicle (FLIPR buffer). Agonist (100 μM BzATP final concentration for hP2X7; 5 μM BzATP final concentration or rP2X7) was added online with the FLIPR and fluorescence measurements made at 1 sec intervals for 60 sec followed by 3 sec intervals for a further 4 min (5 min total). A final addition of 5 μM ionomycin was made and the maximal BzATP-evoked fluorescence normalized to the maximal ionomycin-evoked fluorescence.

Q: Which “pIC50 P2X7” value does the source give for `COc1cc(I)c(CC(=O)N2C=CC(=O)CC2c2ccccc2)cc1OC` (centres unmarked) [Compound 1, 1-[2-(2-Iodo-4,5-dimethoxy-phenyl)-acetyl]-2-phenyl-2,3-dihydro-1H-pyridin-4-one] here?
A: Its value is 6.984.

Q: With `COc1cc(I)c(CC(=O)N2C=CC(=O)CC2c2ccccc2C)cc1OC` (centres unmarked) [Compound 2, 1-[2-(2-Iodo-4,5-dimethoxy-phenyl)-acetyl]-2-o-tolyl-2,3-dihydro-1H-pyridin-4-one] as the molecule, how does the “pIC50 P2X7” value read?
A: The value was 5.963.

Q: `COc1cc(I)c(CC(=O)N2C=CC(=O)C[C@H]2c2ccccc2)cc1OC` [Compound 4, (S)-1-[2-(2-Iodo-4,5-dimethoxy-phenyl)-acetyl]-2-phenyl-2,3-dihydro-1H-pyridin-4-one] was tested. Which “pIC50 P2X7” value did it give?
A: The value was 7.418.

Q: `COc1cc(I)c(CC(=O)N2C=CC(=O)C[C@@H]2c2ccccc2)cc1OC` [Compound 5, (R)-1-[2-(2-Iodo-4,5-dimethoxy-phenyl)-acetyl]-2-phenyl-2,3-dihydro-1H-pyridin-4-one] was tested. Which “pIC50 P2X7” value did it give?
A: The value was 5.425.

Q: `COc1cc(I)c(CC(=O)N2C=CC(=O)CC2c2ccc(F)cc2)cc1OC` (centres unmarked) [Compound 6, 2-(4-Fluoro-phenyl)-1-[2-(2-iodo-4,5-dimethoxy-phenyl)-acetyl]-2,3-dihydro-1H-pyridin-4-one] was tested. Which “pIC50 P2X7” value did it give?
A: The value was 6.97.

Q: How did the “pIC50 P2X7” value turn out when `COc1ccc(Br)c(CC(=O)N2C=CC(=O)CC2c2ccccc2)c1` (centres unmarked) [Compound 7, 1-[2-(2-Bromo-5-methoxy-phenyl)-acetyl]-2-phenyl-2,3-dihydro-1H-pyridin-4-one] was run?
A: The value was 6.765.

Q: For `COc1ccc(CC(=O)N2C=CC(=O)CC2c2ccccc2)c(Br)c1` (centres unmarked) [Compound 8, 1-[2-(2-Bromo-4-methoxy-phenyl)-acetyl]-2-phenyl-2,3-dihydro-1H-pyridin-4-one], which “pIC50 P2X7” value is on record?
A: The value was 5.685.

Q: Which “pIC50 P2X7” value does the source give for `COc1cc(Br)c(CC(=O)N2C=CC(=O)CC2C(C)C)cc1OC` (centres unmarked) [Compound 9, 1-[2-(2-Bromo-4,5-dimethoxy-phenyl)-acetyl]-2-isopropyl-2,3-dihydro-1H-pyridin-4-one] here?
A: The value was 5.45.

Q: How did the “pIC50 P2X7” value turn out when `COc1cc(Br)c(CC(=O)N2C=CC(=O)CC2C2CCCCC2)cc1OC` (centres unmarked) [Compound 10, 1-[2-(2-Bromo-4,5-dimethoxy-phenyl)-acetyl]-2-cyclohexyl-2,3-dihydro-1H-pyridin-4-one] was run?
A: The value was 7.193.

Q: `COc1cc(Cl)c(CC(=O)N2C=CC(=O)CC2c2ccccc2)cc1OC` (centres unmarked) [Compound 11, 1-[2-(2-Chloro-4,5-dimethoxy-phenyl)-acetyl]-2-phenyl-2,3-dihydro-1H-pyridin-4-one] was tested. Which “pIC50 P2X7” value did it give?
A: The value was 6.806.

Q: How did the “pIC50 P2X7” value turn out when `O=C1C=CN(C(=O)Cc2cc3c(cc2Br)OCCO3)C(c2ccccc2)C1` (centres unmarked) [Compound 12, 1-[2-(7-Bromo-2,3-dihydro-benzo[1,4]dioxin-6-yl)-acetyl]-2-phenyl-2,3-dihydro-1H-pyridin-4-one] was run?
A: The value was 5.305.

Q: With `COc1cc(Br)c(CC(=O)N2C=CC(=O)C[C@H]2c2ccccc2)cc1OC` [Compound 13, (S)-1-[2-(2-Bromo-4,5-dimethoxy-phenyl)-acetyl]-2-phenyl-2,3-dihydro-1H-pyridin-4-one] as the molecule, how does the “pIC50 P2X7” value read?
A: Its value is 7.22.

Q: Which “pIC50 P2X7” value does the source give for `COc1cc(Cl)c(CC(=O)N2C=CC(=O)C[C@H]2c2ccccc2)cc1OC` [Compound 14, (S)-1-[2-(2-Chloro-4,5-dimethoxy-phenyl)-acetyl]-2-phenyl-2,3-dihydro-1H-pyridin-4-one] here?
A: Its value is 6.705.

Q: `COc1cc(CC(=O)N2C=CC(=O)CC2c2ccccc2)c(C(F)(F)F)cc1OC` (centres unmarked) [Compound 15, 1-[2-(4,5-Dimethoxy-2-trifluoromethyl-phenyl)-acetyl]-2-phenyl-2,3-dihydro-1H-pyridin-4-one] was tested. Which “pIC50 P2X7” value did it give?
A: The value was 5.395.

Q: `CCOc1cc(CC(=O)N2C=CC(=O)C[C@H]2c2ccc(F)cc2)c(Br)cc1OC` [Compound 16, (S)-1-[2-(2-Bromo-5-ethoxy-4-methoxy-phenyl)-acetyl]-2-(4-fluoro-phenyl)-2,3-dihydro-1H-pyridin-4-one] was tested. Which “pIC50 P2X7” value did it give?
A: Its value is 7.17.

Q: How did the “pIC50 P2X7” value turn out when `CCOc1cc(Br)c(CC(=O)N2C=CC(=O)C[C@H]2c2ccc(F)cc2)cc1OC` [Compound 17, (S)-1-[2-(2-Bromo-4-ethoxy-5-methoxy-phenyl)-acetyl]-2-(4-fluoro-phenyl)-2,3-dihydro-1H-pyridin-4-one] was run?
A: Its value is 6.535.

Q: For `COc1cc(Br)c(CC(=O)N2C=CC(=O)C[C@H]2c2ccc(F)cc2)cc1OCC1CC1` [Compound 18, (S)-1-[2-(2-Bromo-5-cyclopropylmethoxy-4-methoxy-phenyl)-acetyl]-2-(4-fluoro-phenyl)-2,3-dihydro-1H-pyridin-4-one], which “pIC50 P2X7” value is on record?
A: Its value is 6.93.

Q: `COc1cc(Br)c(CC(=O)N2C=CC(=O)C[C@H]2c2ccc(F)cc2)cc1OC` [Compound 19, (S)-1-[2-(2-Bromo-4,5-dimethoxy-phenyl)-acetyl]-2-(4-fluoro-phenyl)-2,3-dihydro-1H-pyridin-4-one] was tested. Which “pIC50 P2X7” value did it give?
A: The value was 7.6125.

Q: Which “pIC50 P2X7” value does the source give for `COc1cc(CC(=O)N2C=CC(=O)C[C@H]2c2ccc(F)cc2)c(Br)cc1OCC1CC1` [Compound 20, (S)-1-[2-(2-Bromo-4-cyclopropylmethoxy-5-methoxy-phenyl)-acetyl]-2-(4-fluoro-phenyl)-2,3-dihydro-1H-pyridin-4-one] here?
A: The value was 6.08.

Q: Which “pIC50 P2X7” value does the source give for `COc1cc(Br)c(CC(=O)N2C=CC(=O)CC2c2ccc(F)cc2)cc1OC` (centres unmarked) [Compound 22, 1-[2-(2-Bromo-4,5-dimethoxy-phenyl)-acetyl]-2-(4-fluoro-phenyl)-2,3-dihydro-1H-pyridin-4-one] here?
A: The value was 7.165.

Q: Which “pIC50 P2X7” value does the source give for `COc1cc(Br)c(CC(=O)N2C=CC(=O)C[C@H]2c2ccc(F)cc2)cc1OC(F)F` [Compound 24, (S)-1-[2-(2-Bromo-5-difluoromethoxy-4-methoxy-phenyl)-acetyl]-2-(4-fluoro-phenyl)-2,3-dihydro-1H-pyridin-4-one] here?
A: The value was 6.305.

Q: For `COc1cc(Br)c(CC(=O)N2C=CC(=O)CC2c2cccc(Cl)c2)cc1OC` (centres unmarked) [Compound 25, 1-[2-(2-Bromo-4,5-dimethoxy-phenyl)-acetyl]-2-(3-chloro-phenyl)-2,3-dihydro-1H-pyridin-4-one], which “pIC50 P2X7” value is on record?
A: The value was 6.28.

Q: Which “pIC50 P2X7” value does the source give for `O=C1C=CN(C(=O)Cc2cc(OC(F)F)c(OC(F)F)cc2Br)[C@H](c2ccc(F)cc2)C1` [Compound 26, (S)-1-[2-(2-Bromo-4,5-bis-difluoromethoxy-phenyl)-acetyl]-2-(4-fluoro-phenyl)-2,3-dihydro-1H-pyridin-4-one] here?
A: Its value is 5.895.

Q: With `COc1cc(Br)c(CC(=O)N2C=CC(=O)CC2C2CCCC2)cc1OC` (centres unmarked) [Compound 27, 1-[2-(2-Bromo-4,5-dimethoxy-phenyl)-acetyl]-2-cyclopentyl-2,3-dihydro-1H-pyridin-4-one] as the molecule, how does the “pIC50 P2X7” value read?
A: The value was 6.35.

Q: Which “pIC50 P2X7” value does the source give for `COc1cccc(C2CC(=O)C=CN2C(=O)Cc2cc(OC)c(OC)cc2Br)c1` (centres unmarked) [Compound 28, 1-[2-(2-Bromo-4,5-dimethoxy-phenyl)-acetyl]-2-(3-methoxy-phenyl)-2,3-dihydro-1H-pyridin-4-one] here?
A: The value was 5.415.

Q: How did the “pIC50 P2X7” value turn out when `COc1cc(CC(=O)N2C=CC(=O)C[C@H]2c2ccc(F)cc2)c(Br)cc1C` [Compound 29, (S)-1-[2-(2-Bromo-5-methoxy-4-methyl-phenyl)-acetyl]-2-(4-fluoro-phenyl)-2,3-dihydro-1H-pyridin-4-one] was run?
A: The value was 6.625.

Q: `COc1cc(CC(=O)N2C=CC(=O)C[C@H]2c2ccc(F)cc2)c(Br)cc1Cl` [Compound 30, (S)-1-[2-(2-Bromo-4-chloro-5-methoxy-phenyl)-acetyl]-2-(4-fluoro-phenyl)-2,3-dihydro-1H-pyridin-4-one] was tested. Which “pIC50 P2X7” value did it give?
A: Its value is 6.4.

Q: Which “pIC50 P2X7” value does the source give for `COc1cc(CC(=O)N2C=CC(=O)CC2c2ccc(F)cc2)c(Br)cc1C` (centres unmarked) [Compound 31, 1-[2-(2-Bromo-5-methoxy-4-methyl-phenyl)-acetyl]-2-(4-fluoro-phenyl)-2,3-dihydro-1H-pyridin-4-one] here?
A: The value was 6.59.

Q: How did the “pIC50 P2X7” value turn out when `COc1cc(CC(=O)N2C=CC(=O)CC2c2ccc(F)cc2)c(Br)cc1Cl` (centres unmarked) [Compound 32, 1-[2-(2-Bromo-4-chloro-5-methoxy-phenyl)-acetyl]-2-(4-fluoro-phenyl)-2,3-dihydro-1H-pyridin-4-one] was run?
A: The value was 6.17.
